Measurements: ChEMBL document CHEMBL1133455, “Synthesis of novel 5-substituted 3-amino-3,4-dihydro-2H-1-benzopyran derivatives and their interactions with the 5-HT1A receptor” (J Med Chem, 2000)
The source made the active and inactive calls. No cut-off for these calls is given here.

Assays:
[1] = target: T1, 5-hydroxytryptamine receptor 1A (Homo sapiens) (UniProt P08908); experiment: Percent inhibition of vasoactive intestinal polypeptide-induced (VIP-induced) cAMP formation in GH4ZD10 cells expressing 5-HT1A receptor at 50 uM relative to 5-HT; type: functional, cell-based
T1 sequence (whole entry): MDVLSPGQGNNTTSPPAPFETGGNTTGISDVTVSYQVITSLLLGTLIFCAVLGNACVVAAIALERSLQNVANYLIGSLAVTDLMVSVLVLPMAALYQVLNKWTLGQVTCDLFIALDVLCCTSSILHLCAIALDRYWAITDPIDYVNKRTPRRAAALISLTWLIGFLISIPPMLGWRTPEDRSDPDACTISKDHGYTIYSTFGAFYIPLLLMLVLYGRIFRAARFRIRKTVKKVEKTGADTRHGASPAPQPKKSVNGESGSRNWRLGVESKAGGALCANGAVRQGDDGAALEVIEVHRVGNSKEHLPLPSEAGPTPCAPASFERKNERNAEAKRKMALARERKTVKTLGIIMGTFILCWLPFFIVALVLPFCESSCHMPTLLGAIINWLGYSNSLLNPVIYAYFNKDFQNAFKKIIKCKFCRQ

[2] = target: T2, 5-hydroxytryptamine receptor 1A (Rattus norvegicus, UniProt P19327); experiment: In vitro binding affinity at 5-HT1A receptors assayed by displacement of [3H]8-OH-DPAT from 5-hydroxytryptamine 1A receptor in rat hippocampal membranes; type: cell membranes, Hippocampus, Membrane
T2 sequence (P19327 whole entry): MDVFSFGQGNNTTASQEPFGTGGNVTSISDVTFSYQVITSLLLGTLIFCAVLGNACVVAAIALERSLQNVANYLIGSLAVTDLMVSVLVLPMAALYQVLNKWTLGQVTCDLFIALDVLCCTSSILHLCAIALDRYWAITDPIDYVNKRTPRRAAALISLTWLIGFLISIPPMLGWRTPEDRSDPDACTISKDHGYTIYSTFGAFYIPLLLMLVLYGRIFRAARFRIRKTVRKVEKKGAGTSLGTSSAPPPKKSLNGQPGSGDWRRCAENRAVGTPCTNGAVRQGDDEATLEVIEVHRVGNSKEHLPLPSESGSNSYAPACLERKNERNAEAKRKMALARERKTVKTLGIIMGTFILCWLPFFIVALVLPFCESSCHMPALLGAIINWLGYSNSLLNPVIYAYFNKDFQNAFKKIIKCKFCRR

[3] = target: T3, 5-hydroxytryptamine receptor 1A (Rattus norvegicus) (UniProt P19327); experiment: Percent of maximum response by 5-HT when tested for inhibition of vasoactive intestinal polypeptide-induced (VIP-induced) cAMP formation assessed in GH4ZD10 cells at 50 uM concentration; No effect; type: functional, cell-based
T3 sequence (whole entry): T2 sequence (P19327 whole entry)

[4] = target: 5-hydroxytryptamine receptor 2A (Rattus norvegicus, UniProt P14842); experiment: In vitro binding affinity at 5-hydroxytryptamine 2A receptor by displacement of [3H]ketanserin from rat cortex
5-hydroxytryptamine receptor 2A, sequence (P14842 whole entry): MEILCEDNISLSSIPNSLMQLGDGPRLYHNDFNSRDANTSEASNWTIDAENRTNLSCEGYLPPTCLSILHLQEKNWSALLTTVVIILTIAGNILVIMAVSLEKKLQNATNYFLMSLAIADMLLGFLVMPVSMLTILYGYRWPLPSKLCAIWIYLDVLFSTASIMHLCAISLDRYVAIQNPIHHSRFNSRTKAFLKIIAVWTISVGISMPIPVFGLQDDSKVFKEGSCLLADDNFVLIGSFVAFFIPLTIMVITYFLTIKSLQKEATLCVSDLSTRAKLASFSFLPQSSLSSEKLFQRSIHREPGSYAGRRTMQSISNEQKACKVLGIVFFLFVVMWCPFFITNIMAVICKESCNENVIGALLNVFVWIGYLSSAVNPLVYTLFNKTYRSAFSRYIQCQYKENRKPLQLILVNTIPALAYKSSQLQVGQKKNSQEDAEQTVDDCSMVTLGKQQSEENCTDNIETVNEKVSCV

D(1A) dopamine receptor = D(1A) dopamine receptor (Rattus norvegicus, UniProt P18901); experiment: In vitro binding affinity at D1 receptor by measuring its ability to displace [3H]SCH-23390 from Dopamine receptor D1 in rat striatum
D(1A) dopamine receptor, sequence (P18901 whole entry): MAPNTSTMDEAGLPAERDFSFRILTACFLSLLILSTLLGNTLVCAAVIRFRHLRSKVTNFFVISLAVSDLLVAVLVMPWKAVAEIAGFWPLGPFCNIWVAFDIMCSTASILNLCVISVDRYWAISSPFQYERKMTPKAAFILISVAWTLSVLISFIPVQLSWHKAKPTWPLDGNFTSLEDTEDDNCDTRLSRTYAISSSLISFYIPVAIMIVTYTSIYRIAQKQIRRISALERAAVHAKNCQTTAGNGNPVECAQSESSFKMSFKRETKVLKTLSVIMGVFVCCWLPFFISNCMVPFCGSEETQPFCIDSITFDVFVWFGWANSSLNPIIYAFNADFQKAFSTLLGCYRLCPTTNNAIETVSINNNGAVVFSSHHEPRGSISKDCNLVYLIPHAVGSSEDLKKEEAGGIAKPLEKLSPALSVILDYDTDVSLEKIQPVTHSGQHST

D(2) dopamine receptor [5] = target: T4, D(2) dopamine receptor (Homo sapiens, UniProt P14416); experiment: In vitro binding affinity at human cloned Dopamine receptor D2A measured by ability to displace [3H]raclopride from D2A receptor expressed in mouse fibroblast (LtK-) cells; type: cell-based
T4 sequence (P14416 whole entry): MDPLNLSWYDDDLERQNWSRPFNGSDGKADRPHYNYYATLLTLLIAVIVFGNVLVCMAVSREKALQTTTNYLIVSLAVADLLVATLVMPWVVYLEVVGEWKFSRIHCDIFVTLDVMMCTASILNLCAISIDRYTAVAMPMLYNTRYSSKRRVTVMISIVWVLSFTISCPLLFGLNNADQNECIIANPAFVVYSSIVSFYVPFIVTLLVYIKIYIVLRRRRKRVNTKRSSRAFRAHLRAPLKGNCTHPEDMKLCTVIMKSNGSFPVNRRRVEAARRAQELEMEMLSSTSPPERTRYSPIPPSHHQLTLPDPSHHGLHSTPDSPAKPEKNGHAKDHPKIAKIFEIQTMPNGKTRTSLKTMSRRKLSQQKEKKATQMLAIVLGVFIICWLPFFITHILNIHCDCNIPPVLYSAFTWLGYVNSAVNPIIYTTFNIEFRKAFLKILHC

D(2) dopamine receptor [6] = target: T4, D(2) dopamine receptor; experiment: In vitro binding affinity at human cloned Dopamine receptor D2A by measuring its ability to displace [3H]raclopride from D2A receptor expressed in mouse fibroblast (LtK-) cells; type: cell-based
[7] = target: T2, 5-hydroxytryptamine receptor 1A; experiment: In vitro binding affinity at 5-HT1A receptor by measuring its ability to displace [3H]-8-OH-DPAT from 5-hydroxytryptamine 1A receptor in rat hippocampal membranes+cortex; type: cell membranes, Hippocampus
[8] = target: T3, 5-hydroxytryptamine receptor 1A (Rattus norvegicus); experiment: Percent of maximum response by 5-HT when tested for inhibition of vasoactive intestinal polypeptide-induced (VIP-induced) cAMP formation assessed in GH4ZD10 cells at 10 uM concentration; type: functional, cell-based
[9] = target: T2, 5-hydroxytryptamine receptor 1A; experiment: In vitro binding affinity at 5-HT1A receptor by measuring its ability to displace [3H]8-OH-DPAT from 5-hydroxytryptamine 1A receptor in rat hippocampal membranes + cortex; type: cell membranes, Hippocampus

Row | Compound | Efficacy [1] | Ki [2] | Ki [4] | Ki (D(1A) dopamine receptor) | Ki (D(2) dopamine receptor [5]) | further results
1 | CNC(=O)c1cccc2c1C[C@H](NCCCCN1C(=O)CC3(CCCC3)CC1=O)CO2 | 82% | 24.3 nM | – | – | – | –
2 | CC(C)NC(=O)c1cccc2c1C[C@@H](NC(C)C)CO2 | – | 4300 nM | > 10000 nM | > 1000 nM | > 1000 nM | Efficacy [3]: inactive
3 | CCCN(C(C)C)[C@@H]1COc2cccc(C(=O)NC(C)C)c2C1 | – | – | > 10000 nM | > 50000 nM | > 50000 nM | Efficacy [3]: inactive
4 | CCCN(C(C)C)[C@@H]1COc2cccc(C(C)=O)c2C1 | 128% | 11.9 nM | – | – | – | Ki (D(2) dopamine receptor [6]): 30100 nM
5 | CC(C)N[C@H]1COc2cccc(C(N)=O)c2C1 | 20% | 397 nM | > 1000 nM | > 1000 nM | > 1000 nM | –
6 | CCCN(C(C)C)[C@H]1COc2cccc(C(=O)OC(C)C)c2C1 | – | – | – | – | – | Ki [7]: 18 nM
7 | CNC(=O)c1cccc2c1C[C@@H](NCCCCN1C(=O)CC3(CCCC3)CC1=O)CO2 | 61% | 525 nM | – | – | – | –
8 | CCN(C(C)C)[C@H]1COc2cccc(C(=O)NC(C)C)c2C1 | – | 200 nM | > 1000 nM | > 1000 nM | > 1000 nM | Efficacy [8]: 34%
9 | CCCN(CC(C)(C)C)[C@H]1COc2cccc(C(=O)NC)c2C1 | 88% | 31 nM | – | – | – | –
10 | CCCN(CC(C)(C)C)[C@@H]1COc2cccc(C(=O)NC)c2C1 | – | 3.96 nM | – | – | – | Efficacy [8]: 91%
11 | CCCN(C(C)C)[C@H]1COc2cccc(OC)c2C1 | – | – | – | – | – | Ki [7]: 3.1 nM
12 | CCCN(C(C)C)[C@@H]1COc2cccc(OC)c2C1 | – | – | – | – | – | Ki [7]: 134 nM
13 | CCCN(C1CCCC1)[C@@H]1COc2cccc(C(=O)NC)c2C1 | 110% | 18.5 nM | – | – | – | –
14 | CCCN(C(C)C)[C@H]1COc2cccc(C(C)=O)c2C1 | – | 0.3 nM | – | – | – | –
15 | CCCN(C(C)C)[C@H]1COc2cccc(C(=O)NC(C)C)c2C1 [EBALZOTAN] | 74% | 7.77 nM | > 10000 nM | > 50000 nM | > 50000 nM | –
16 | CCCN(CCC)[C@@H]1COc2cccc(C(=O)NC(C)C)c2C1 | 95% | – | – | – | – | Ki [9]: 64 nM
17 | NC(=O)c1cccc2c1C[C@@H](N)CO2 | – | – | > 1000 nM | > 1000 nM | > 1000 nM | Efficacy [3]: inactive
18 | CCCN(CCC)[C@H]1COc2cccc(C(=O)NC(C)C)c2C1 | 58% | 14 nM | > 1000 nM | > 1000 nM | > 1000 nM | –
19 | CCCN[C@H]1COc2cccc(C(N)=O)c2C1 | 42% | 98.4 nM | > 1000 nM | > 1000 nM | > 1000 nM | –

Now from value to molecule, other results behind:

Row | Efficacy [1] | Ki [2] | Ki [4] | Ki (D(1A) dopamine receptor) | Ki (D(2) dopamine receptor [5]) | Compound | further results
20 | 103% | < 0.3 nM | – | – | – | CCCN(CCCCN1C(=O)CC2(CCCC2)CC1=O)[C@@H]1COc2cccc(C(=O)NC)c2C1 | –
21 | 96% | 2.37 nM | > 50000 nM | – | – | CCCN(CC(C)C)[C@H]1COc2cccc(C(=O)NC)c2C1 | –
22 | 62% | 0.34 nM | – | – | – | CCCN(CCCCN1C(=O)CC2(CCCC2)CC1=O)[C@H]1COc2cccc(C(=O)NC)c2C1 | –
23 | – | < 0.3 nM | > 1000 nM | > 4000 nM | > 1000 nM | CCCN(C1CCCC1)[C@H]1COc2cccc(C(N)=O)c2C1 | Efficacy [8]: 80%
24 | – | 0.41 nM | – | – | – | CCCN(C1CCCC1)[C@H]1COc2cccc(C(=O)OC)c2C1 | –
25 | 70% | < 0.3 nM | – | – | – | CCCN(C1CCCC1)[C@H]1COc2cccc(C(=O)NC)c2C1 | –
26 | 75% | 0.48 nM | > 1000 nM | > 1000 nM | > 50000 nM | CCCN(C(C)C)[C@H]1COc2cccc(C(N)=O)c2C1 | –
27 | 128% | 0.32 nM | – | – | – | CCCN(C(C)C)[C@H]1COc2cccc(C(=O)OC)c2C1 | –
28 | 123% | 2.48 nM | – | – | – | CNC(=O)c1cccc2c1C[C@H](N(CCCCN1C(=O)CC3(CCCC3)CC1=O)CC(C)C)CO2 | –
